System: HL-60 tumor cell line
Test: HL-60 Differentiation Assay (NBT reduction)
Assay type: cell-based
Details: 4 days incubation; for % Differentiated cells: NBT/TPA
Method: HL-60 Differentiation Assay:
The HL-60 tumor cell line was originally derived from a patient with promyelocytic leukemia. The cells are maintained in suspension and diluted to 200,000 cells/ml in 5 ml of suspension media. Compounds were tested at four concentrations in duplicate flasks. Control flasks were supplemented with vehicle alone at the highest concentration such as 0.1% ethanol. Flasks are incubated upright for 4 days in 5% CO2 at 37°C. On day 4, a 1 ml aliquot of cells was centrifuged, the media removed and the cells resuspended in a 0.2 ml of solution of nitroblue tetrazolium/phorbol 12 myristate 13-acetate (NBT/TPA). The cells are suspended and incubated at 37°C for 30 min. prior to transferring to ice. An aliquot is removed and a total of 200 cells is counted using a hemocytometer. Cells without pigmented granules are judged to be undifferentiated while those containing blue black formazan (indicating conversion of NBT) granules were scored as differentiated. Results are expressed as percent differentiated cells by calculating the ratio of the number of dark cells per total number of cells counted.

With `CC(CC#CC(O)(C(F)(F)F)C(F)(F)F)C1=CCC2C(=CC=C3CC(O)CC(O)C3)CCCC12C` (stereo not shown) [Compound D, 1,25-dihydroxy-16-ene-23-yne-26,27-hexafluoro-19-nor-cholecalciferol] the EC50 (Homo sapiens, 96 h, HL-60 differentiation, read-out: ED50 (the source's name)) was 0.8 nM, the “% Differentiated cells” value (concentration 10^-8 (unit not given)) was 89.5% and the “% Differentiated cells” value (concentration 10^-9 (unit not given)) was 56.5%. For the same compound, the “% Differentiated cells” value (concentration 10^-10 (unit not given)) was 1.5%.

— patent publication EP0580968B1, “Vitamin D3 fluorinated analogs” (F. HOFFMANN-LA ROCHE AG, priority 1992, dated 1994)
